For 15 molecules, T/C results are on record in PubChem BioAssay AID328 (DTP/NCI, 2004).

Where “and” joins values, the source holds several entries; their conditions need not be identical. Identical values can stand only once. Toxic doses and inconclusive results are not listed.

The subject of the assay is BDF1 mice, P388 leukemia ip, median survival T/C. In words: NCI In Vivo Anticancer Drug Screen. Data for tumor model P388 Leukemia (intraperitoneal) in B6D2F1 (BDF1) mice. To be noted: endpoint: median survival time, higher = longer survival. Summed up: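 In tumour-bearing mice, survival after compound treatment is set against the vehicle group and given as a quotient.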

Setting [1] is: dose: 50.0 mg/kg/injection, schedule: Q01DX009 (ip), vehicle: Klucel (hydroxypropylcellulose) (HPC).
Where [2] appears, read: dose: 200.0 mg/kg/injection, schedule: Q04DX003 (ip), vehicle: Klucel (hydroxypropylcellulose) (HPC).
Setting [3] is: dose: 400.0 mg/kg/injection, schedule: Q04DX003 (ip), vehicle: Klucel (hydroxypropylcellulose) (HPC).
[4] abbreviates: dose: 12.5 mg/kg/injection, schedule: Q01DX009 (ip), vehicle: other.
Setting [5] is: dose: 25.0 mg/kg/injection, schedule: Q01DX009 (ip), vehicle: other.
Where [6] appears, read: dose: 25.0 mg/kg/injection, schedule: Q01DX009 (ip), vehicle: saline with Tween-80.
[7] abbreviates: dose: 50.0 mg/kg/injection, schedule: Q01DX009 (ip), vehicle: saline with Tween-80.
The mark [8] stands for this setting: dose: 100.0 mg/kg/injection, schedule: Q01DX009 (ip), vehicle: saline with Tween-80.
Setting [9] is: dose: 200.0 mg/kg/injection, schedule: Q01DX009 (ip), vehicle: saline with Tween-80.
[10] abbreviates: dose: 400.0 mg/kg/injection, schedule: Q01DX009 (ip), vehicle: saline with Tween-80.

In the case of `Nc1c(Br)cc2c(c1Br)Cc1cc(Cl)ccc1-2`, the T/C was 100 % of control (dose: 6.0 mg/kg/injection, schedule: Q04DX003 (ip), vehicle: Klucel (hydroxypropylcellulose) (HPC)); 100 % of control (dose: 12.0 mg/kg/injection, schedule: Q04DX003 (ip), vehicle: Klucel (hydroxypropylcellulose) (HPC)); 100 % of control (dose: 25.0 mg/kg/injection, schedule: Q01DX009 (ip), vehicle: Klucel (hydroxypropylcellulose) (HPC)); 100 % of control (dose: 25.0 mg/kg/injection, schedule: Q04DX003 (ip), vehicle: Klucel (hydroxypropylcellulose) (HPC)); 87 % of control and 90 % of control and 100 % of control under setting [1]; 90 % of control (dose: 50.0 mg/kg/injection, schedule: Q04DX003 (ip), vehicle: Klucel (hydroxypropylcellulose) (HPC)). Further, the T/C is, setting by setting: under setting [2], 118 % of control; under setting [3], 95 % of control and 104 % of control.

On to `O=c1oc2ccccc2c2c1C(c1ccc3c(c1)OCO3)C=C(c1ccc3c(c1)OCO3)O2` (stereo not drawn), for which the T/C is, setting by setting: (dose: 12.5 mg/kg/injection, schedule: Q01DX009 (ip), vehicle: water) 97 % of control; (dose: 25.0 mg/kg/injection, schedule: Q01DX009 (ip), vehicle: water) 104 % of control; (dose: 25.0 mg/kg/injection, schedule: Q04DX003 (ip), vehicle: water) 113 % of control; (dose: 50.0 mg/kg/injection, schedule: Q01DX009 (ip), vehicle: water) 101 % of control and 104 % of control; (dose: 50.0 mg/kg/injection, schedule: Q04DX003 (ip), vehicle: water) 116 % of control; (dose: 100.0 mg/kg/injection, schedule: Q01DX009 (ip), vehicle: water) 95 % of control. The T/C (dose: 100.0 mg/kg/injection, schedule: Q04DX003 (ip), vehicle: water) was 103 % of control; the T/C (dose: 200.0 mg/kg/injection, schedule: Q01DX009 (ip), vehicle: water) is 108 % of control and 123 % of control; the T/C (dose: 200.0 mg/kg/injection, schedule: Q04DX003 (ip), vehicle: water) is 102 % of control and 111 % of control; the T/C (dose: 300.0 mg/kg/injection, schedule: Q01DX009 (ip), vehicle: water) was 101 % of control; the T/C (dose: 300.0 mg/kg/injection, schedule: Q04DX003 (ip), vehicle: water) is 102 % of control; the T/C (dose: 400.0 mg/kg/injection, schedule: Q01DX009 (ip), vehicle: water) was 101 % of control. For the same molecule, the T/C (dose: 400.0 mg/kg/injection, schedule: Q04DX003 (ip), vehicle: water) was 119 % of control and 120 % of control; the T/C (dose: 500.0 mg/kg/injection, schedule: Q01DX009 (ip), vehicle: water) is 118 % of control.

As to `CN(C)CCCN1c2ccc(O)cc2Sc2ccc(Cl)cc21`, the T/C reads like this: (dose: 3.1 mg/kg/injection, schedule: Q01DX009 (ip), vehicle: other) 90 % of control; (dose: 6.2 mg/kg/injection, schedule: Q01DX009 (ip), vehicle: other) 90 % of control; under setting [4], 104 % of control; under setting [5], 109 % of control; under setting [6], 91 % of control; under setting [7], 91 % of control. Besides, the T/C under setting [8] is 100 % of control.

For `Cc1cc(O)c(C(c2ccccn2)c2c(O)cc(C)[nH]c2=O)c(=O)[nH]1`, the T/C is 95 % of control (dose: 12.5 mg/kg/injection, schedule: Q01DX009 (ip), vehicle: saline with Tween-80); 90 % of control under setting [6]; 100 % of control under setting [7].

As to `C#CCOc1ccccc(Br)c1=O`, the T/C is 115 % of control (dose: 50.0 mg/kg/injection, schedule: Q04DX002 (ip), vehicle: saline with Tween-80); 104 % of control (dose: 100.0 mg/kg/injection, schedule: Q04DX002 (ip), vehicle: saline with Tween-80); 106 % of control (dose: 200.0 mg/kg/injection, schedule: Q04DX002 (ip), vehicle: saline with Tween-80).

With `Nc1nc(=O)n(C2CC(O)C(CO)O2)cc1Br` (stereo not drawn), the T/C runs as follows: under setting [8], 109 % of control; under setting [9], 90 % of control; under setting [10], 100 % of control.

On to `O=C(NNc1ccc([N+](=O)[O-])cc1)c1ccccc1`, for which the T/C is 100 % of control under setting [1]; 90 % of control (dose: 100.0 mg/kg/injection, schedule: Q01DX009 (ip), vehicle: Klucel (hydroxypropylcellulose) (HPC)); 115 % of control (dose: 100.0 mg/kg/injection, schedule: Q04DX003 (ip), vehicle: Klucel (hydroxypropylcellulose) (HPC)); 100 % of control (dose: 200.0 mg/kg/injection, schedule: Q01DX009 (ip), vehicle: Klucel (hydroxypropylcellulose) (HPC)); 100 % of control under setting [2]; 95 % of control under setting [3].

`Cc1ccc(S(=O)(=O)N/N=C/c2ccncc2)cc1`: the T/C under setting [4] was 110 % of control; the T/C under setting [5] is 117 % of control; the T/C (dose: 50.0 mg/kg/injection, schedule: Q01DX009 (ip), vehicle: other) is 119 % of control; the T/C (dose: 200.0 mg/kg/injection, schedule: Q01DX009 (ip), vehicle: other) was 155 % of control.

As to `COC(OC)c1[nH]c(=S)[nH]c(=O)c1Cc1cccc2ccccc12`, the T/C is, setting by setting: under setting [8], 111 % of control; (dose: 100.0 mg/kg/injection, schedule: Q04DX003 (ip), vehicle: saline with Tween-80) 100 % of control; under setting [9], 92 % of control; (dose: 200.0 mg/kg/injection, schedule: Q04DX003 (ip), vehicle: saline with Tween-80) 91 % of control; under setting [10], 88 % of control; (dose: 400.0 mg/kg/injection, schedule: Q04DX003 (ip), vehicle: saline with Tween-80) 87 % of control.

As for `[O-]c1c[n+](-c2ccccc2)no1`, the T/C runs as follows: under setting [7], 119 % of control; under setting [9], 94 % of control.

Regarding `CCCCCCCCCCCC(=O)c1ccc(Cl)cc1`, the T/C is 91 % of control under setting [8], 92 % of control under setting [9] and 109 % of control under setting [10].

As for `CC(/C=N/N=C(N)N)=N\N=C(N)N.O=C([O-])C(=O)[O-].O=C([O-])C(=O)[O-].[Nb+5].[O-][O-].[O-][O-]`, the T/C reads like this: (dose: 12.5 mg/kg/injection, schedule: Q01DX009 (ip), vehicle: saline) 97 % of control; (dose: 50.0 mg/kg/injection, schedule: Q01DX009 (ip), vehicle: saline) 90 % of control.

Take `CSC(=S)NNC(=O)c1cccc([N+](=O)[O-])c1`: the T/C was 110 % of control (dose: 6.25 mg/kg/injection, schedule: Q04DX003 (ip), vehicle: saline sonified); 105 % of control (dose: 12.5 mg/kg/injection, schedule: Q04DX003 (ip), vehicle: saline sonified); 100 % of control (dose: 25.0 mg/kg/injection, schedule: Q04DX003 (ip), vehicle: saline sonified).

On to `CS(=O)(=O)Nc1ccc(Nc2c3ccccc3nc3cc([N+](=O)[O-])ccc23)cc1`, for which the T/C was 91 % of control (dose: 0.09 mg/kg/injection, schedule: Q04DX003 (ip), vehicle: saline with Tween-80); 100 % of control (dose: 0.18 mg/kg/injection, schedule: Q04DX003 (ip), vehicle: saline with Tween-80); 169 % of control (dose: 0.75 mg/kg/injection, schedule: Q01DX009 (ip), vehicle: saline with Tween-80); 185 % of control (dose: 1.5 mg/kg/injection, schedule: Q01DX009 (ip), vehicle: saline with Tween-80); 150 % of control (dose: 1.5 mg/kg/injection, schedule: Q04DX003 (ip), vehicle: saline with Tween-80); 235 % of control (dose: 3.0 mg/kg/injection, schedule: Q01DX009 (ip), vehicle: saline with Tween-80). The T/C was 162 % of control (dose: 3.0 mg/kg/injection, schedule: Q04DX003 (ip), vehicle: saline with Tween-80); 252 % of control and 183 % of control and 200 % of control (dose: 6.0 mg/kg/injection, schedule: Q04DX003 (ip), vehicle: saline with Tween-80); 285 % of control and 204 % of control (dose: 9.0 mg/kg/injection, schedule: Q04DX003 (ip), vehicle: saline with Tween-80); 250 % of control and 285 % of control (dose: 14.0 mg/kg/injection, schedule: Q04DX003 (ip), vehicle: saline with Tween-80); 250 % of control and 272 % of control and 157 % of control (dose: 21.0 mg/kg/injection, schedule: Q04DX003 (ip), vehicle: saline with Tween-80).

In the case of `CN(C)CCC(=O)O`, the T/C was 100 % of control under setting [8], 95 % of control under setting [9] and 90 % of control under setting [10].
